# Source: patent publication US7732475B2, “Histone deacetylase inhibitors” (Takeda San Diego, Inc., priority 2005, dated 2010)
# Target: HDAC2 (Homo sapiens, UniProt Q92769)
# Assay: HDAC2 fluorescence inhibition assay (tBoc-Lys(Ac)-AMC)
# Details: not given
# Sequence of HDAC2 (Q92769 with tags, fused parts or gaps): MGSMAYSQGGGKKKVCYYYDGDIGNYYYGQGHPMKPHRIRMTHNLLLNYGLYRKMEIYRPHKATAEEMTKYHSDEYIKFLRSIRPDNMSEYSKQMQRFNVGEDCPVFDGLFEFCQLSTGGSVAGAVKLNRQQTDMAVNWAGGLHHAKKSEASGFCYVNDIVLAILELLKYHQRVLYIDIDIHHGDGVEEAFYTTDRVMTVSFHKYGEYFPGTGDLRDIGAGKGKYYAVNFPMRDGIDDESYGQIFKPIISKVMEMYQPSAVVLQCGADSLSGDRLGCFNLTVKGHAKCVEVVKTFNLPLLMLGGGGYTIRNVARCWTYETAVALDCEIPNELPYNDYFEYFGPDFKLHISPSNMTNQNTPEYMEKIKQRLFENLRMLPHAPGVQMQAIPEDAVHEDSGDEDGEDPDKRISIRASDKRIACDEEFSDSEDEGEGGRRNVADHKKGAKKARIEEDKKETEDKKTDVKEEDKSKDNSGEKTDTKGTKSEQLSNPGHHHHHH
row,IC50 [nM],Structure (SMILES)
1,≤ 50,"Nc1ccccc1NC(=O)c1ccc(Cn2cc3c(F)cccc3n2)cc1 [Example 49, N-(2-aminophenyl)-4-((4-fluoro-2H-indazol-2-yl)methyl)benzamide]"
2,50 to 100,"CC(=O)Nc1ccc2c(C)nn(Cc3ccc(C(=O)Nc4ccccc4N)cc3)c2c1 [Example 87, 4-((6-acetamido-3-methyl-1H-indazol-1-yl)methyl)-N-(2-aminophenyl)benzamide]"
3,≤ 50,"CC(C)CNC(=O)c1cnn(Cc2ccc(C(=O)Nc3ccccc3N)cc2)c1 [Example 150, 1-(4-(2-aminophenylcarbamoyl)benzyl)-N-isobutyl-1H-pyrazole-4-carboxamide]"
4,100 to 500,"Nc1ccccc1NC(=O)c1ccc(Cn2cc3ccccc3n2)s1 [Example 19, 5-((2H-Indazol-2-yl)methyl)-N-(2-aminophenyl)thiophene-2-carboxamide]"
5,50 to 100,"Cc1nn(Cc2ccc(C(=O)Nc3ccccc3N)cc2)c2c(F)cccc12 [Example 52, N-(2-aminophenyl)-4-((7-fluoro-3-methyl-1H-indazol-1-yl)methyl)benzamide]"
6,≤ 50,"Nc1ccc(-c2ccccc2)cc1NC(=O)c1ccc(Cn2cc3ccccc3n2)cc1 [Example 27, N-(4-Amino-biphenyl-3-yl)-4-indazol-2-ylmethyl-benzamide]"
7,≤ 50,"COC(=O)Nc1ccc2nn(Cc3ccc(C(=O)Nc4ccccc4N)cc3)cc2c1 [Example 12, Methyl 2-(4-((2-aminophenyl)carbamoyl)benzyl)-2H-indazol-5-ylcarbamate]"
8,50 to 100,"Nc1ccccc1NC(=O)c1ccc(Cn2cc(C(=O)NCC3CC3)cn2)cc1 [Example 139, 1-(4-(2-aminophenylcarbamoyl)benzyl)-N-(cyclopropylmethyl)-1H-pyrazole-4-carboxamide]"
9,50 to 100,"Nc1ccccc1NC(=O)c1ccc(Cn2ncc3c(C(F)(F)F)cccc32)cc1 [Example 117, N-(2-aminophenyl)-4-((4-(trifluoromethyl)-1H-indazol-1-yl)methyl)benzamide]"
10,50 to 100,"CC(c1ccc(C(=O)Nc2ccccc2N)cc1)n1ncc2ccccc21 (stereo not drawn) [Example 108, 4-(1-(1H-indazol-1-yl)ethyl)-N-(2-aminophenyl)benzamide]"
11,100 to 500,"Cc1nn(Cc2ccc(C(=O)Nc3ccccc3N)cc2)c2ccc(F)cc12 [Example 70, N-(2-aminophenyl)-4-((5-fluoro-3-methyl-1H-indazol-1-yl)methyl)benzamide]"
12,≤ 50,"Nc1ccccc1NC(=O)c1ccc(Cn2ncc3cc(NC(=O)N4CCOCC4)ccc32)cc1 [Example 21, N-(1-(4-((2-Aminophenyl)carbamoyl)benzyl)-1H-indazol-5-yl)morpholine-4-carboxamide]"
13,≤ 50,"Nc1ccccc1NC(=O)c1ccc(Cn2cc(C(=O)NCc3ccccn3)cn2)cc1 [Example 126, 1-(4-(2-aminophenylcarbamoyl)benzyl)-N-(pyridin-2-ylmethyl)-1H-pyrazole-4-carboxamide]"
14,≥ 500,"Nc1ccccc1NC(=O)c1ccc(Cn2nccc2N)cc1 [Example 132, 4-((5-amino-1H-pyrazol-1-yl)methyl)-N-(2-aminophenyl)benzamide]"
15,≤ 50,"CC(C)NC(=O)c1cnn(Cc2ccc(C(=O)Nc3ccccc3N)cc2)c1 [Example 137, 1-(4-(2-aminophenylcarbamoyl)benzyl)-N-isopropyl-1H-pyrazole-4-carboxamide]"
16,≥ 500,"Nc1ccccc1NC(=O)c1ccc(Cn2cc(C(=O)O)cn2)cc1 [Example 122, 1-(4-(2-aminophenylcarbamoyl)benzyl)-1H-pyrazole-4-carboxylic acid]"

row,IC50 [nM],Structure (SMILES)
1,≤ 50,"Nc1ccccc1NC(=O)c1ccc(Cn2cc(C(=O)NCc3ccncc3)cn2)cc1 [Example 146, 1-(4-(2-aminophenylcarbamoyl)benzyl)-N-(pyridin-4-ylmethyl)-1H-pyrazole-4-carboxamide]"
2,50 to 100,"Nc1ccccc1NC(=O)c1ccc(Cn2nc(-c3ccccc3)c3ccccc32)cc1 [Example 76, N-(2-aminophenyl)-4-((3-phenyl-1H-indazol-1-yl)methyl)benzamide]"
3,≤ 50,"Nc1ccccc1NC(=O)c1ccc(Cn2cc(C(=O)NCCCO)cn2)cc1 [Example 153, 1-(4-(2-aminophenylcarbamoyl)benzyl)-N-(3-hydroxypropyl)-1H-pyrazole-4-carboxamide]"
4,50 to 100,"Nc1ccccc1NC(=O)c1ccc(Cn2[nH]c(=O)c3ccccc32)cc1 [Example 64, N-(2-aminophenyl)-4-((3-oxo-2,3-dihydro-1H-indazol-1-yl)methyl)benzamide]"
5,50 to 100,"Nc1ccccc1NC(=O)c1ccc(Cn2nc(N)c3ccccc32)cc1 [Example 96, 4-((3-amino-1H-indazol-1-yl)methyl)-N-(2-aminophenyl)benzamide]"
6,50 to 100,"CNC(=O)c1cnn(Cc2ccc(C(=O)Nc3ccccc3N)cc2)c1 [Example 134, 1-(4-(2-aminophenylcarbamoyl)benzyl)-N-methyl-1H-pyrazole-4-carboxamide]"
7,100 to 500,"Nc1ccccc1NC(=O)c1ccc(Cn2ccc3cccnc32)cc1 [Example 157, 4-((1H-Pyrrolo[2,3-b]pyridin-1-yl)methyl)-N-(2-aminophenyl)benzamide]"
8,≤ 50,"COCCOC(=O)Nc1ccc2c(cnn2Cc2ccc(C(=O)Nc3ccccc3N)cc2)c1 [Example 13, 2-Methoxyethyl 1-(4-((2-aminophenyl)carbamoyl)benzyl)-1H-indazol-5-ylcarbamate]"
9,100 to 500,"Cc1c2ccc(O)cc2nn1Cc1ccc(C(=O)Nc2ccccc2N)cc1 [Example 75, N-(2-aminophenyl)-4-((6-hydroxy-3-methyl-2H-indazol-2-yl)methyl)benzamide]"
10,≤ 50,"Nc1ccccc1NC(=O)c1ccc(Cn2cc3cc(NC(=O)N4CCOCC4)ccc3n2)cc1 [Example 18, N-(2-(4-((2-Aminophenyl)carbamoyl)benzyl)-2H-indazol-5-yl)morpholine-4-carboxamide]"
11,≤ 50,"Nc1ccccc1NC(=O)c1ccc(Cn2cc3cc([N+](=O)[O-])ccc3n2)s1 [Example 20, N-(2-Aminophenyl)-5-((5-nitro-2H-indazol-2-yl)methyl)thiophene-2-carboxamide]"
12,≤ 50,"CC(=O)Nc1ccc2c(cnn2Cc2ccc(C(=O)Nc3ccccc3N)cc2)c1 [Example 3, 4-((5-acetamido-1H-indazol-1-yl)methyl)-N-(2-aminophenyl)benzamide]"
13,≥ 500,"Nc1ccccc1NC(=O)c1ccc(Cn2cccn2)cc1 [Example 31, 4-((1H-pyrazol-1-yl)methyl)-N-(2-aminophenyl)benzamide]"
14,50 to 100,"Nc1ccccc1NC(=O)c1ccc(Cn2ncc3cccc(F)c32)cc1 [Example 46, N-(2-aminophenyl)-4-((7-fluoro-1H-indazol-1-yl)methyl)benzamide]"
15,≤ 50,"COc1cc2cn(Cc3ccc(C(=O)Nc4ccccc4N)cc3)nc2cc1OC [Example 98, N-(2-aminophenyl)-4-((5,6-dimethoxy-2H-indazol-2-yl)methyl)benzamide]"
16,50 to 100,"Nc1ccccc1NC(=O)c1ccc(Cn2nc(Cl)c3ccccc32)cc1 [Example 60, N-(2-aminophenyl)-4-((3-chloro-1H-indazol-1-yl)methyl)benzamide]"

# Same assay, conditions: read-out: IC50 of selected exemplified compounds against HDAC2; 50 μM tBoc-Lys(Ac)-AMC, 1 nM HDAC2, 60 minutes at room temperature
row,IC50 [nM],Structure (SMILES)
1,≥ 500,"CC(=O)Nc1ccc2c(cnn2Cc2ccc(C(=O)Nc3ccccc3N)cc2)c1 [Example 102, 4-((5-acetamido-1H-indazol-1-yl)methyl)-N-(2-aminophenyl)benzamide]"
